Like-named read-outs stand apart in the source and are kept apart here.
Tests used:
[1] = system: Reconstructed human epidermis (RHE) tissues; test: RT-qPCR gene expression of K10, K19, filaggrin, K4 and K13 in reconstructed human epidermis (RHE) cultures; type: cell-based; conditions: 72 h, 2.83 mM in OD/10% DMSO, 6 μl
Method: Reconstructed human epidermis (RHE) tissues were cultured in-house as previously described by Poumay et al. Briefly, polycarbonate culture inserts (12 mm diameter and 0.4 μm pore size, Millipore) were filled with 150 μL of a suspension containing approximately 5×10^5 primary adult human keratinocytes. The inserts received another 500 μL of keratinocyte culture media and were placed in a 6-well plate (1 insert/well) containing 2.5 mL of RHE Growth Media (Epilife media +1.5 mM CaCl2). RHE cultures were incubated at 37° C. in a humidified atmosphere containing 5% CO2, for 24 hours. Subsequently (on Day 0), RHE cultures were exposed to the air-liquid interface by removing the RHE Growth Media from the top of the cultures, and replacing with 1.5 mL/well of RHE Growth Media containing 50 μg/mL vitamin C. Media was changed every other day until the cultures were dosed with Test Articles. A stock solution of 0.1% tazarotene (2.83 mM at 99.5% purity) in OD/10% DMSO was prepared. For tazarotene benzoate, hydroxytazarotenic acid, keto tazarotenic acid, keto tazarotene, and tazarotene nicotinate, a 10 mg/mL stock solution (in DMSO) was already prepared. From this stock solution, a 2.83 mM working solution (in octyldodecanol) was prepared. All other tested compounds were resuspended in DMSO and OD to obtain a final concentration of 2.83 mM in OD/10% DMSO. On Day 12, the cultures were placed in 60 mm petri dishes containing 3 mL of RHE Growth Media (+VitC). Test articles (6 μl) were applied to triplicate cultures and cultures were incubated at 37° C. for 72 hours. Untreated and OD alone served as negative controls. At the end of the incubation period, the growth media was collected and stored at −20° C. The tissues were cut in half: one half was placed in 10% NBF for histology, and the other half was placed in RNAlater™ solution for RT-qPCR. RNA was isolated and concentrations were determined using a NanoDrop spectrophotometer. In addition to using the same amount of RNA for each sample, data was normalized to internal GAPDH mRNA levels and is expressed as relative quantification (RQ) to untreated controls. RNA extracts from each replicate were amplified using RT-qPCR. The relative gene expression of five biomarkers was determined: Keratin 10, Keratin 19, Filaggrin, Keratin 4, and Keratin 13.

[2] = Metabolism in the presence of human skin microsomes; conditions: human skin microsomes; paraoxon 0, 10 or 100 μM
Method: Hepatic microsomal reactions were carried out in microcentrifuge tubes in the following manner. Human liver microsomes (0.5 or 1.0 mg/ml protein), Test Article (1 or 10 μM), paraoxon (0, 10 or 100 μM), NADPH regenerating system (10 mM glucose-6-phosphate, 1 unit/ml glucose-6-phosphate dehydrogenase, 1 mM NADP^+), magnesium chloride (5 mM) in 0.1 M potassium phosphate buffer, pH 7.4 were incubated at 37° C. in a shaking water bath. Reactions were initiated with the addition of substrate with the exception of the zero-time incubations. The total reaction volume was 0.2 ml. The reactions were incubated for 15, 30, 45 or 60 minutes, terminated with 0.2 ml ice-cold acetonitrile and then placed on ice. For zero-time incubations, ice cold acetonitrile was added to the mixture containing microsomes, along with NADPH regenerating system, magnesium chloride in phosphate buffer and the Test Article. Each time point was carried out in triplicate.
Five time points were chosen, but because of the limitation of human skin microsome supply, each one was carried out in duplicate. Skin microsomal reactions were carried out as described above for hepatic microsomal reactions with the following two exceptions. Firstly, the total reaction volume was 0.1 mL. Secondly, incubations were terminated with 0.1 mL acetonitrile.

[3] = read-out: K4 Fold Change vs Untreated/OD controls (upregulation)
[4] = read-out: K13 Fold Change vs Untreated/OD controls (upregulation)
[5] = read-out: K19 Fold Change vs Untreated/OD controls (upregulation)
[6] = human liver microsomes, paraoxon 0, 10 or 100 μM

Structure (SMILES)	fold induction at 2830 µM [1, 3]	fold induction at 2830 µM [1, 4]	fold induction at 2830 µM [1, 5]	further results
CCOc1ccc2ccc(=O)oc2c1 [7-ethoxycoumarin]	–	–	–	metabolized by human liver microsomes (positive control) (initial concentration 10 μM, 0 or 30 minutes): as expected
CCOC(=O)c1ccc(C#Cc2ccc3c(c2)C(C)(C)C[C@@H](OC(=O)c2ccccc2)S3)nc1 [Compound 5, (S)-6-(2-(2-benzoyloxy-4,4-dimethylthiochroman-6-yl)ethynyl) nicotinic acid, ethyl ester]	45	7	8	–
CCOC(=O)c1ccc(C#Cc2ccc3c(c2)C(C)(C)C[C@H](OC(=O)c2ccccc2)S3)nc1 [Compound 6, (R)-6-(2-(2-benzoyloxy-4,4-dimethylthiochroman-6-yl)ethynyl)nicotinic acid, ethyl ester]	20	7	8	–
CCOC(=O)c1ccc(C#Cc2ccc3c(c2)C(C)(C)C[C@@H](OC(=O)c2cccnc2)S3)nc1 [Compound 8, (S)-6-[4,4-dimethyl-2-(pyridine-3-carbonyloxy)thiochroman-6-ylethynyl]nicotinic acid ethyl ester]	35	7	18	–
CCOC(=O)c1ccc(C#Cc2ccc3c(c2)C(C)(C)C[C@H](OC(=O)c2cccnc2)S3)nc1 [Compound 9, (R)-6-[4,4-dimethyl-2-(pyridine-3-carbonyloxy)thiochroman-6-ylethynyl]nicotinic acid ethyl ester]	32	5	17	–
CC1(C)CC(O)Sc2ccc(C#Cc3ccc(C(=O)O)cn3)cc21 (stereo not drawn) [Compound 10, 6-((2-hydroxy-4,4-dimethylthiochroman-6-yl)ethynyl)nicotinic acid]	65	11	25	–
CC1(C)CC(=O)Sc2ccc(C#Cc3ccc(C(=O)O)cn3)cc21 [Compound 11, 6-((4,4-dimethyl-2-oxothiochroman-6-yl)ethynyl)nicotinic acid]	52	20	21	–
CCOC(=O)c1ccc(C#Cc2ccc3c(c2)C(C)(C)CC(=O)S3)nc1 [Compound 12, ethyl 6-((4,4-dimethyl-2-oxothiochroman-6-yl)ethynyl)nicotinate]	103 to 180	15	27	–
CCCCCCCCCCCCCCCC(=O)OC1CC(C)(C)c2cc(C#Cc3ccc(C(=O)OCC)cn3)ccc2S1 (stereo not drawn) [Compound 13]	38	6	4	–
CCOC(=O)c1ccc(C#Cc2ccc3c(c2)C(C)(C)CC(O)S3)nc1 (stereo not drawn) [Compound 14, Ethyl 6-[(2-hydroxy-4,4-dimethyl-3,4-dihydro-2-thiochromen-6-yl)ethynyl]pyridine-3-carboxylate]	87	20	29	–
CCOC(=O)c1ccc(C#Cc2ccc3c(c2)C(C)(C)CC(OC(=O)CO)S3)nc1 (stereo not drawn) [Compound 15, 6-[2-(2-Hydroxy-acetoxy)-4,4-dimethyl-thiochroman-6-ylethynyl]-nicotinic acid ethyl ester]	64	12	33 to 43	–
CCOC(=O)c1ccc(C#Cc2ccc3c(c2)C(C)(C)CC(OC(=O)COC)S3)nc1 (stereo not drawn) [Compound 16]	69	9	20	–
CCOC(=O)c1ccc(C#Cc2ccc3c(c2)C(C)(C)CC(OC(C)=O)S3)nc1 (stereo not drawn) [Compound 17]	103 to 180	15	24	–
CCCC(=O)OC1CC(C)(C)c2cc(C#Cc3ccc(C(=O)OCC)cn3)ccc2S1 (stereo not drawn) [Compound 18, Ethyl 6-[(2-n-butyryloxyl-4,4-dimethyl-3,4-dihydro-2-thiochromen-6-yl)ethynyl]pyridine-3-carboxylate]	60	9	22	–
CCCCCCCCCCCC(=O)OC1CC(C)(C)c2cc(C#Cc3ccc(C(=O)OCC)cn3)ccc2S1 (stereo not drawn) [Compound 19]	19	2	2	–
CCOC(=O)c1ccc(C#Cc2ccc3c(c2)C(C)(C)CC(OC(=O)C(C)C)S3)nc1 (stereo not drawn) [Compound 20, Ethyl 6-[(2-isobutyryloxy-4,4-dimethyl-3,4-dihydro-2-thiochromen-6-yl)ethynyl]pyridine-3-carboxylate]	22	6	15	–
CC/C=C\C/C=C\C/C=C\CCCCCCC(=O)OC1CC(C)(C)c2cc(C#Cc3ccc(C(=O)OCC)cn3)ccc2S1 (stereo not drawn) [Compound 22]	38	10	12	–
CCOC(=O)c1ccc(C#Cc2ccc3c(c2)C(C)(C)CC(OC(=O)C2CCN(C)CC2)S3)nc1 (stereo not drawn) [Compound 23]	73	19	33 to 43	–
CCOC(=O)c1ccc(C#Cc2ccc3c(c2)C(C)(C)CC(OC(=O)CC)S3)nc1 (stereo not drawn) [Compound 24]	74	23	33 to 43	–
CCOC(=O)c1ccc(C#Cc2ccc3c(c2)C(C)(C)CC(OC(=O)c2ccccc2O)S3)nc1 (stereo not drawn) [Compound 25, Ethyl 6-[(2-salicylicyl-4,4-dimethyl-3,4-dihydro-2-thiochromen-6-yl)ethynyl]pyridine-3-carboxylate]	103 to 180	17	23	–
CCOC(=O)c1ccc(C#Cc2ccc3c(c2)C(C)(C)CC(OC(=O)C2CCOCC2)S3)nc1 (stereo not drawn) [Compound 26]	90	10	20	–
CCOC(=O)c1ccc(C#Cc2ccc3c(c2)C(C)(C)CC(OC(=O)CCCCC(=O)OC)S3)nc1 (stereo not drawn) [Compound 27, Ethyl 6-[(2-monomethyladopyl-4,4-dimethyl-3,4-dihydro-2-thiochromen-6-yl)ethynyl]pyridine-3-carboxylate]	70	19	33 to 43	–
CCOC(=O)c1ccc(C#Cc2ccc3c(c2)C(C)(C)CC(OC(=O)CCCCCCCC(=O)OC)S3)nc1 (stereo not drawn) [Compound 28]	103 to 180	18	30	–
CCOC(=O)c1ccc(C#Cc2ccc3c(c2)C(C)(C)CC(OC(=O)[C@@H](N)C(C)C)S3)nc1 (stereo partly drawn) [Compound 29, 6-[2-((S)-2-Amino-3-methyl-butyryloxy)-4,4-dimethyl-thiochroman-6-ylethynyl]-nicotinic acid ethyl ester]	71	13	29	–
CCOP(=O)(OCC)Oc1ccc([N+](=O)[O-])cc1 [Paraoxon]	–	–	–	inhibition of the metabolism of tazarotenic acid to tazarotenic acid sulfoxide (CYP- and FMO-mediated reaction): did not inhibit; inhibition of tazarotene benzoate metabolism to hydroxy tazarotenic acid [6]: inhibited; inhibition of tazarotene metabolism to tazarotenic acid [6]: inhibited; inhibition of tazarotene sulfoxide metabolism to tazarotenic acid sulfoxide [6]: inhibited; inhibition of tazarotene benzoate metabolism to hydroxy tazarotenic acid [2]: inhibited

From patent US9062037B2, “Tazarotene derivatives” (Stiefel Laboratories, Inc., priority 2009, dated 2015)
